According to patent US20250099431A1, “GLP-1R MODULATING COMPOUNDS” (priority 2020, published 2025):
Like-named read-outs stand apart in the source and are kept apart here.

Tests used:
GLP-1R = GLP-1R (Homo sapiens (Human), UniProt P43220); assay: GLP-1R activation: cAMP increase in CHO cells stably expressing GLP-1R; assay type: cell-based; conditions: 10 point dose response, 30 minutes incubation at 37° C.
In short: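 CHO cells stably expressing GLP-1R were incubated 1 h at 37 °C in medium with 1% BSA, then exposed to compound in a 10-point dose response for 30 min at 37 °C. cAMP rise was detected by HTRF (Gs Dynamic kit). EC50 came from a sigmoidal fit of response against log agonist concentration.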

[1] = Microsomal stability (liver microsomal assay, mixed cofactors); predicted hepatic clearance; assay type: in vitro ADME; conditions: liver microsomes 1.0 mg protein/mL (+UDPGA +NADPH), 1 μM analyte, 37° C.; scaled with human liver weight and hepatic blood flow 1.3 L/hr/kg
In short: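 Compound at 1 μM with human or rat pooled liver microsomes, alamethicin-treated, pH 7.4 phosphate, NADPH-regenerating plus UDPGA cofactors, 37° C, sampled 0–70 min. Parent/internal standard ratio by RapidFire QToF MS; half-life from initial log-linear decay, scaled to intrinsic and predicted hepatic clearance and hepatic extraction.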

GLP-1R, sequence (P43220 24-463): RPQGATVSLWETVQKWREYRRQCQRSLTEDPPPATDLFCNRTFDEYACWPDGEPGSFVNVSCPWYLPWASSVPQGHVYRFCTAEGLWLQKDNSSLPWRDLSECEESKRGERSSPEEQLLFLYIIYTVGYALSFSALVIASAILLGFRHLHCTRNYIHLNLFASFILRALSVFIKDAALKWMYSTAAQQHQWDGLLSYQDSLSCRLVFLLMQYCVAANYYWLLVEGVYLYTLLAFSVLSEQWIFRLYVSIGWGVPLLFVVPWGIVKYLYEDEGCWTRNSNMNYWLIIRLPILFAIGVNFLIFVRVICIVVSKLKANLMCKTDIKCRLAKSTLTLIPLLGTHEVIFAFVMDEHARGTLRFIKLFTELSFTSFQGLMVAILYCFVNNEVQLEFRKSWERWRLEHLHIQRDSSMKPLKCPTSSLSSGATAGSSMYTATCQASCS

Structure (SMILES) | EC50 (GLP-1R; cAMP increase, read-out: EC50) | Predicted Hepatic Clearance (Pred. Cl.) [1] | EC50 (GLP-1R; EC50, cAMP increase)
CC1(c2ccc(C#N)cc2F)Oc2cccc(-c3cc(F)c(Cc4nc5ccc(C(=O)O)cc5n4C[C@@H]4CCO4)c(F)c3F)c2O1 (stereo partly drawn) [Example 90, 2-(4-(2-(4-cyano-2-fluorophenyl)-2-methylbenzo[d][1, 3]dioxol-4-yl)-2,3,6-trifluorobenzyl)-1-(((S)-oxetan-2-yl)methyl)-1H-benzo[d]imidazole-6-carboxylic acid] | 0.23 nM | 4.67 mL/min/kg | –
CC1(c2ccc(Cl)cc2F)Oc2cccc(-c3cc(F)c(Cc4nc5ccc(C(=O)O)cc5n4C[C@@H]4CCO4)cc3F)c2O1 (single isomer, unassigned) [Example 43] | 7.4 nM | 4.67 mL/min/kg | –
CC1(c2ccc(Cl)cc2F)Oc2cccc(-c3cc(F)c(Cc4nc5ccc(C(=O)O)nc5n4CC4(CC#N)CC4)cc3F)c2O1 (centres unmarked) [Example 75, 2-(4-(2-(4-chloro-2-fluorophenyl)-2-methylbenzo[d][1, 3]dioxol-4-yl)-2,5-difluorobenzyl)-3-((1-(cyanomethyl)cyclopropyl)methyl)-3H-imidazo[4,5-b]pyridine-5-carboxylic acid] | 0.7 nM | 4.83 mL/min/kg | –
CC1(c2ccc(Cl)cc2F)Oc2cccc(-c3cc(F)c(Cc4nc5ccc(C(=O)O)c(F)c5n4C[C@@H]4CCO4)c(F)c3)c2O1 (stereo partly drawn) [Example 2, 2-(4-(2-(4-chloro-2-fluorophenyl)-2-methylbenzo[d][1, 3]dioxol-4-yl)-2,6-difluorobenzyl)-7-fluoro-1-(((S)-oxetan-2-yl)methyl)-1H-benzo[d]imidazole-6-carboxylic acid] | 0.17 nM | <1.83 mL/min/kg | –
CC1(c2ccc(Cl)cc2F)Oc2cccc(-c3cc(F)c(Cc4nc5ccc(C(=O)O)cc5n4C[C@@H]4CCO4)c(F)c3)c2O1 (single isomer, unassigned) [Example 47] | – | 3.17 mL/min/kg | 0.07 nM
N#Cc1ccc(C2Oc3cccc(-c4cc(F)c(Cc5nc6ccc(C(=O)O)cc6n5C[C@@H]5CCO5)c(F)c4)c3O2)c(F)c1 (single isomer, unassigned) [Example 42] | 1.1 nM | 3.83 mL/min/kg | –
COCCn1c(Cc2c(F)cc(-c3cccc4c3OC(C)(c3ccc(Cl)cc3F)O4)cc2F)nc2ccc(C(=O)O)cc21 (centres unmarked) [Example 19, 2-(4-(2-(4-chloro-2-fluorophenyl)-2-methylbenzo[d][1, 3]dioxol-4-yl)-2,6-difluorobenzyl)-1-(2-methoxyethyl)-1H-benzo[d]imidazole-6-carboxylic acid] | 0.97 nM | 2.5 mL/min/kg | –
COCCn1c(Cc2cc(F)c(-c3c(F)ccc4c3OC(C)(c3ccc(Cl)cn3)O4)cc2F)nc2ccc(C(=O)O)cc21 (centres unmarked) [Example 101, 2-(4-(2-(5-chloropyridin-2-yl)-5-fluoro-2-methylbenzo[d][1, 3]dioxol-4-yl)-2,5-difluorobenzyl)-1-(2-methoxyethyl)-1H-benzo[d]imidazole-6-carboxylic acid] | 160 nM | 11.8 mL/min/kg | –
CC1(c2ccc(Cl)cc2F)Oc2cccc(-c3ccc(Cc4nc5ccc(C(=O)O)cc5n4Cc4ccon4)c(F)c3)c2O1 (centres unmarked) [Example 107, 2-(4-(2-(4-chloro-2-fluorophenyl)-2-methylbenzo[d][1, 3]dioxol-4-yl)-2-fluorobenzyl)-1-(isoxazol-3-ylmethyl)-3a,7a-dihydro-1H-benzo[d]imidazole-6-carboxylic acid] | 1.9 nM | 4.33 mL/min/kg | –
COCCn1c(Cc2cc(F)c(-c3cccc4c3OC(c3ccc(C#N)cc3F)O4)cc2F)nc2ccc(C(=O)O)cc21 (centres unmarked) [Example 31, 2-(4-(2-(4-cyano-2-fluorophenyl)benzo [d][1,3]dioxol-4-yl)-2,5-difluorobenzyl)-1-(2-methoxyethyl)-1H-benzo[d]imidazole-6-carboxylic acid] | 89 nM | 3.17 mL/min/kg | –
N#Cc1ccc(C2Oc3cccc(-c4cc(F)c(Cc5nc6ccc(C(=O)O)cc6n5C[C@@H]5CCO5)c(F)c4)c3O2)c(F)c1 (single isomer, unassigned) [Example 41] | 438 nM | 2.83 mL/min/kg | –
COCCn1c(Cc2c(F)cc(-c3cccc4c3OC(C)(c3ccc(C#N)cc3F)O4)cc2F)nc2ccc(C(=O)O)cc21 (centres unmarked) [Example 89, 2-(4-(2-(4-cyano-2-fluorophenyl)-2-methylbenzo[d][1, 3]dioxol-4-yl)-2,6-difluorobenzyl)-1-(2-methoxyethyl)-1H-benzo[d]imidazole-6-carboxylic acid] | 15 nM | 6.17 mL/min/kg | –
CC1(c2ccc(C#N)cc2F)Oc2cccc(-c3cc(F)c(Cc4nc5ccc(C(=O)O)cc5n4C[C@@H]4CCO4)c(F)c3F)c2O1 (single isomer, unassigned) [Example 94] | 0.32 nM | 7 mL/min/kg | –
COCCn1c(Cc2c(F)cc(-c3cccc4c3OC(C)(c3ccc(Cl)cc3OC)O4)cc2F)nc2ccc(C(=O)O)cc21 (centres unmarked) [Example 60, 2-(4-(2-(4-chloro-2-methoxyphenyl)-2-methylbenzo[d][1, 3]dioxol-4-yl)-2,6-difluorobenzyl)-1-(2-methoxyethyl)-1H-benzo[d]imidazole-6-carboxylic acid] | 3.8 nM | 3.5 mL/min/kg | –
COCCn1c(Cc2csc(-c3cccc4c3OC(C)(c3ccc(Cl)cc3F)O4)c2)nc2ccc(C(=O)O)cc21 (centres unmarked) [Example 61, 2-((5-(2-(4-chloro-2-fluorophenyl)-2-methylbenzo[d][1, 3]dioxol-4-yl)thiophen-3-yl)methyl)-1-(2-methoxyethyl)-1H-benzo[d]imidazole-6-carboxylic acid] | 639 nM | 13 mL/min/kg | –
COCCn1c(Cc2c(F)cc(-c3cccc4c3OC(C)(c3ccc(C#N)cc3F)O4)cc2F)nc2ccc(C(=O)O)cc21 (single isomer, unassigned) [Example 98, 2-(4-(2-(4-cyano-2-fluorophenyl)-2-methylbenzo[d][1, 3]dioxol-4-yl)-2,6-difluorobenzyl)-1-(2-methoxyethyl)-1H-benzo[d]imidazole-6-carboxylic acid] | 67 nM | 3.5 mL/min/kg | –
COCCn1c(Cc2c(F)cc(-c3cccc4c3OC3(c5ccc(Cl)cc5)CCCN43)cc2F)nc2ccc(C(=O)O)cc21 (centres unmarked) [Example 16, 2-(4-(3a-(4-chlorophenyl)-1,2,3,3a-tetrahydrobenzo[d]pyrrolo[2,1-b]oxazol-5-yl)-2,6-difluorobenzyl)-1-(2-methoxyethyl)-1H-benzo[d]imidazole-6-carboxylic acid] | 6920 nM | 9 mL/min/kg | –
CC1(c2ccc(Cl)cn2)Oc2cccc(-c3cnc(Cc4nc5ccc(C(=O)O)cc5n4C[C@@H]4CCO4)c(F)c3)c2O1 (stereo partly drawn) [Example 14, 2-((5-(2-(5-chloropyridin-2-yl)-2-methylbenzo[d][1, 3]dioxol-4-yl)-3-fluoropyridin-2-yl)methyl)-1-(((S)-oxetan-2-yl)methyl)-1H-benzo[d]imidazole-6-carboxylic acid] | 4.5 nM | 2.5 mL/min/kg | –
CC(=O)N1CC[C@@H]1Cn1c(Cc2ccc(-c3cccc4c3OC(C)(c3ccc(Cl)cc3F)O4)cc2F)nc2ccc(C(=O)O)cc21 (stereo partly drawn) [Example 108, 3-[[(2R)-1-acetylazetidin-2-yl]methyl]-2-[[4-[2-(4-chloro-2-fluoro-phenyl)-2-methyl-1,3-benzodioxol-4-yl]-2-fluoro-phenyl]methyl] benzimidazole-5-carboxylic acid] | 4.3 nM | 2 mL/min/kg | –
COCCn1c(Cc2c(F)cc(-c3cccc4c3OC3(CCCOc5cc(Cl)ccc53)O4)cc2F)nc2ccc(C(=O)O)cc21 (centres unmarked) [Example 55, 2-(4-(8-chloro-3,4-dihydro-2H-spiro[benzo[b]oxepine-5,2′-benzo[d][1,3]dioxol]-4′-yl)-2,6-difluorobenzyl)-1-(2-methoxyethyl)-1H-benzo[d]imidazole-6-carboxylic acid] | 1270 nM | 8.3 mL/min/kg | –
CC1(c2ccc(Cl)cc2F)Oc2cccc(-c3cc(F)c(Cc4nc5c(F)cc(C(=O)O)cc5n4CC4(CC#N)CC4)c(F)c3)c2O1 (centres unmarked) [Example 13, 2-(4-(2-(4-chloro-2-fluorophenyl)-2-methylbenzo[d][1, 3]dioxol-4-yl)-2,6-difluorobenzyl)-1-((1-(cyanomethyl)cyclo-propyl)methyl)-4-fluoro-1H-benzo[d]imidazole-6-carboxylic acid] | 0.41 nM | <1.83 mL/min/kg | –
COCCn1c(Cc2ccc(-c3cccc4c3OC(c3ccccc3)C4)cc2F)nc2ccc(C(=O)O)cc21 (centres unmarked) [Example 7, 2-(2-fluoro-4-(2-phenyl-2,3-dihydrobenzofuran-7-yl)benzyl)-1-(2-methoxyethyl)-1H-benzo[d]imidazole-6-carboxylic acid] | 530 nM | 7.5 mL/min/kg | –
